Tests used:
FOXO1 = FOXO1 by immunofluorescence and immunoblotting; assay type: cell-based, human; settings: DS−1 3.125, 6.25, and 12.5 μM
Protocol: Figure 3 DS−1 inhibited the expression of transcription factor FOXO1 in U−2 OS cells. (A) U−2 OS cells were treated with DS−1 at 0, 3.125, 6.25, and 12.5 μM, and the changes in FOXO1 were analyzed by immunofluorescent staining, followed by confocal microscopy imaging. (B) U−2OS cells were treated with DS−1 at 0, 3.125, 6.25, and 12.5 μM, and FOXO1 and pFOXO1 were analyzed by Western blot; the changes were presented in histograms (C,D). (E) U−2 OS cells were treated with DS−1 at 6.25 μM for 0, 12, 24, and 48 h, then FOXO1 was analyzed by Western blot, and the changes are presented in the histogram (F). (G) The pFOXO1/FOXO1 value is shown in the histogram. […]
Sample preparation: U−2 OS cells seeded in 10 cm Petri dishes were collected and washed with ice-cold PBS and RIPA lysis buffer with PMAF; phosphatase inhibitor was added, and the tubes were placed on ice for 30 min and vortexed for 30 s at intervals of 10 min. […] The protein samples were placed on ice, and the concentration of each protein sample was measured by the BCA kit (Thermo). […]
(§1) Antibody staining: We blocked the membrane for 1 h at room temperature using 5% blocking solution, then incubated the membrane with appropriate dilutions of the primary antibody in the blocking solution overnight at 4 °C. […] Images were acquired using darkroom development techniques for chemiluminescence and analyzed by Image J.

AKT = assay: Western blot AKT; assay type: cell-based, human; settings: DS−1 2.5, 5.0, and 7.5 µM, 24 h
Protocol: Sample preparation: U−2 OS cells seeded in 10 cm Petri dishes were collected and washed with ice-cold PBS and RIPA lysis buffer with PMAF; phosphatase inhibitor was added, and the tubes were placed on ice for 30 min and vortexed for 30 s at intervals of 10 min. The samples were centrifuged at 12,000 g at 4 °C for 15 min, and the supernatants were collected in new centrifuge tubes. The protein samples were placed on ice, and the concentration of each protein sample was measured by the BCA kit (Thermo). The protein concentration was adjusted to the same by milli Q ultrapure water.
Loading and running the gel: Equal amounts of protein were loaded into the wells of the 10% SDS-PAGE gel, along with molecular weight markers, and 15 μg of total protein from the cell lysate was loaded. We then ran the gel for 45 min at 200 V.
Transferring the protein: We prepared the transfer stack as follows: negative plate, sponge, filter paper, gel, PVDF membrane, filter paper, sponge, and positive plate. The transfer was for 90 min at 200 mA.
as §1

NRK−49F cells = assay: MTT cell proliferation assay, NRK−49F cells; assay type: cell-based, rat; settings: Rattus norvegicus, 24 h, read-out: IC50 NRK−49F cells (24 h)
Protocol: The effects of tanshinones (DS−1 to DS−5) on the proliferation of U−2 OS cells, HeLa cells, and NRK−49F cells were measured by the classical MTT method with minor modifications as follows. Cells were seeded at 5000 per well in 96-well plates, with each group being repeated in 5 wells, and were incubated for 12 h. DS−1 to DS−5 were added at gradient concentrations, then incubated for 24 and 48 h, respectively. Then, 20 μL MTT solution (solved in PBS, 5 mg/mL) was added to every well, and the cells were further incubated at 37 °C for 4 h until a purple precipitate was visible. The plate was centrifuged at 1000 rpm for 1 min; the supernatant was suctioned, and 150 μL of DMSO was added per well; the plate was shaken on a shaker protected from light for 15 min. We placed the plate in an enzyme marker and measured the absorbance values at a 490 nm wavelength.

vimentin = assay: RT-PCR vimentin mRNA in U−2 OS cells; assay type: cell-based, human; settings: 24 h
Protocol: Total RNA within cells was extracted by the RNAeasy™ Animal Long RNA Isolation Kit with Spin Column (Shanghai, Beyotime); the concentrations and OD260/OD280 and OD230/OD260 values were measured by NanoDrop. Five micrograms of RNA was used for reverse transcription; each sample was diluted to 16 μL, and 4 μL of synthesized premix solution (5×) was added, then the mixtures were placed in a 42 °C water bath for 10 min, then an 80 °C water bath for 10 min to deactivate reverse transcriptase. After reverse transcription, each sample was diluted to 140 μL. PCR amplification was carried out by the ABI700 real-time PCR system, and the amplification reaction was detected with a SYBR probe. After PCR, actin and GAPDH were used as internal references, and the relative standard curve method (2^−ΔΔcT) determined the relative expression of mRNA.

## Cc1cccc2c3c(ccc12)C1=C(C(=O)C3=O)[C@@H](C)CO1 [DS−1, 15,16-Dihydrotanshinone I]
FOXO1
  expression of FOXO1: reduced
AKT
  expression of AKT: no significant change
NRK−49F cells
  IC50: 25 ± 1.98 µM
vimentin; DS−1 2.5 µM
  vimentin mRNA, fold of the control group: 0.67 ± 0.11 fold
vimentin; DS−1 5.0 µM
  vimentin mRNA, fold of the control group: 0.51 ± 0.11 fold
vimentin; DS−1 7.5 µM
  vimentin mRNA, fold of the control group: 0.12 ± 0.16 fold
